# Assay results taken from PubChem BioAssay (NCI).
#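 Step 1: Grow cells in 96-well plates. Step 2: Expose to compound for 48 hours at 5 concentrations. Step 3: Interpolate endpoints linearly; if unreached, use highest concentration. GI50 marks 50% less growth. TGI marks complete inhibition of growth.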
# Key:
# Assay in all cases: NCI tumour cell line growth inhibition, 48 h
# IGROV1 ovarian = tested on: IGROV1 ovarian
# OVCAR-3 ovarian = tested on: OVCAR-3 ovarian
# OVCAR-5 ovarian = tested on: OVCAR-5 ovarian
# SF-295 CNS = tested on: SF-295 CNS
# SF-539 CNS = tested on: SF-539 CNS
# SNB-19 CNS = tested on: SNB-19 CNS
# SR leukemia = tested on: SR leukemia
# NCI-H522 lung = tested on: NCI-H522 lung
# MDA-MB-435 = tested on: MDA-MB-435
# T-47D breast = tested on: T-47D breast
structure (smiles),measurement,setting,value
CCC1(c2ccncc2)CCC(=O)NC1=O (stereo not drawn),TGI,IGROV1 ovarian,> 100 µM
same,TGI,OVCAR-3 ovarian,> 100 µM
same,TGI,OVCAR-5 ovarian,> 100 µM
same,TGI,SF-295 CNS,> 100 µM
same,TGI,SF-539 CNS,> 100 µM
same,TGI,SNB-19 CNS,> 100 µM
same,TGI,SR leukemia,> 100 µM
O=C(CN1C(=O)c2ccccc2C1=O)OC1C=CCCC1 (stereo not drawn),TGI,IGROV1 ovarian,> 100 µM
same,TGI,NCI-H522 lung,> 100 µM
same,TGI,SF-539 CNS,> 100 µM
same,TGI,SNB-19 CNS,> 100 µM
same,TGI,SR leukemia,> 100 µM
O=c1cc(-c2ccccc2)oc2cc(OCc3cn(Cc4ccc(F)cc4)nn3)cc(O)c12,GI50,IGROV1 ovarian,17.6 µM
same,TGI,IGROV1 ovarian,> 100 µM
same,GI50,NCI-H522 lung,6.6 µM
same,TGI,NCI-H522 lung,> 100 µM
same,GI50,OVCAR-5 ovarian,> 100 µM
same,TGI,OVCAR-5 ovarian,> 100 µM
same,GI50,SF-295 CNS,10.2 µM
same,TGI,SF-295 CNS,46.8 µM
same,GI50,SF-539 CNS,5.17 µM
same,TGI,SF-539 CNS,> 100 µM
same,GI50,SNB-19 CNS,4.51 µM
same,TGI,SNB-19 CNS,83.2 µM
COc1ccc(OC)c(-c2cn3nc(-c4c[nH]c5ccc(Br)cc45)sc3n2)c1,GI50,IGROV1 ovarian,2.27 µM
same,TGI,IGROV1 ovarian,11.5 µM
same,GI50,MDA-MB-435,2.42 µM
same,TGI,MDA-MB-435,5.83 µM
same,GI50,NCI-H522 lung,1.98 µM
same,TGI,NCI-H522 lung,4.81 µM
same,GI50,OVCAR-3 ovarian,1.96 µM
same,TGI,OVCAR-3 ovarian,4.32 µM
same,GI50,OVCAR-5 ovarian,3.52 µM
same,TGI,OVCAR-5 ovarian,15.6 µM
same,GI50,SF-295 CNS,4.7 µM
same,TGI,SF-295 CNS,16.3 µM
same,GI50,SF-539 CNS,1.78 µM
same,TGI,SF-539 CNS,3.41 µM
same,GI50,SNB-19 CNS,4.51 µM
same,TGI,SNB-19 CNS,18.6 µM
CCCCCCCCCCSS(=O)(=O)c1ccc(C)cc1,TGI,IGROV1 ovarian,33.7 µM
same,TGI,NCI-H522 lung,17.2 µM
same,TGI,OVCAR-3 ovarian,33.1 µM
same,TGI,OVCAR-5 ovarian,30.6 µM
same,TGI,SF-295 CNS,18.1 µM
same,TGI,SF-539 CNS,3.67 µM
same,TGI,SNB-19 CNS,27.6 µM
same,TGI,SR leukemia,27.8 µM
Cc1ccc(S(=O)(=O)NC(C)C(=O)O)cc1 (stereo not drawn),TGI,IGROV1 ovarian,> 100 µM
same,TGI,NCI-H522 lung,> 100 µM
same,TGI,OVCAR-3 ovarian,> 100 µM
same,TGI,OVCAR-5 ovarian,> 100 µM
same,TGI,SF-295 CNS,> 100 µM
same,TGI,SF-539 CNS,> 100 µM
same,TGI,SNB-19 CNS,> 100 µM
CN1NC(c2ccccc2)=C(C#N)C(=O)CC1c1ccccc1Cl (stereo not drawn),TGI,NCI-H522 lung,> 100 µM
same,TGI,OVCAR-5 ovarian,> 100 µM
same,TGI,SF-295 CNS,> 100 µM
same,TGI,SNB-19 CNS,> 100 µM
same,TGI,SR leukemia,> 100 µM
O=C(O)c1cc2c3c(c1)[C@H]1C=CC[C@H]1CN3CC1CC=CC21 (stereo partly drawn),TGI,IGROV1 ovarian,> 100 µM
same,TGI,NCI-H522 lung,> 100 µM
same,TGI,OVCAR-3 ovarian,> 100 µM
same,TGI,OVCAR-5 ovarian,> 100 µM
same,TGI,SF-295 CNS,> 100 µM
same,TGI,SF-539 CNS,> 100 µM
same,TGI,SNB-19 CNS,> 100 µM
same,TGI,SR leukemia,> 100 µM
c1ccc(CN2CCC3(CC2)ONC2=NCCN23)cc1,GI50,IGROV1 ovarian,35.8 µM
same,TGI,IGROV1 ovarian,> 100 µM
same,GI50,MDA-MB-435,91.5 µM
same,TGI,MDA-MB-435,> 100 µM
same,GI50,NCI-H522 lung,37.8 µM
same,TGI,NCI-H522 lung,> 100 µM
same,GI50,OVCAR-3 ovarian,19.5 µM
same,TGI,OVCAR-3 ovarian,87.3 µM
same,GI50,OVCAR-5 ovarian,40.8 µM
same,TGI,OVCAR-5 ovarian,> 100 µM
same,GI50,SF-295 CNS,> 100 µM
same,TGI,SF-295 CNS,> 100 µM
same,GI50,SF-539 CNS,96.3 µM
same,TGI,SF-539 CNS,> 100 µM
same,GI50,SNB-19 CNS,> 100 µM
same,TGI,SNB-19 CNS,> 100 µM
same,GI50,T-47D breast,> 100 µM
same,TGI,T-47D breast,> 100 µM
C#Cc1cccc(N2C(=O)CC(=P(c3ccccc3)(c3ccccc3)c3ccccc3)C2=O)c1,TGI,NCI-H522 lung,> 100 µM
same,TGI,OVCAR-3 ovarian,> 100 µM
same,TGI,OVCAR-5 ovarian,> 100 µM
same,TGI,SF-295 CNS,> 100 µM
same,TGI,SNB-19 CNS,> 100 µM
same,TGI,SR leukemia,> 100 µM
CC[O+]=c1cccc2ssnc1-2,TGI,IGROV1 ovarian,> 100 µM
same,TGI,NCI-H522 lung,82.6 µM
same,TGI,OVCAR-3 ovarian,99.8 µM
same,TGI,OVCAR-5 ovarian,> 100 µM
same,TGI,SF-295 CNS,> 100 µM
same,TGI,SF-539 CNS,> 100 µM
same,TGI,SNB-19 CNS,> 100 µM
COc1ccc2c3c([nH]c2c1[N+](=O)[O-])C(C)N(C(=O)/C=C/c1ccccc1)CC3 (stereo not drawn),TGI,IGROV1 ovarian,> 100 µM
same,TGI,NCI-H522 lung,> 100 µM
same,TGI,OVCAR-3 ovarian,> 100 µM
same,TGI,OVCAR-5 ovarian,> 100 µM
same,TGI,SF-295 CNS,5.88 µM
same,TGI,SF-539 CNS,23.2 µM
same,TGI,SNB-19 CNS,> 100 µM
same,TGI,SR leukemia,> 100 µM
CCOc1ccc2c(-c3ccnc(Nc4cccc(C(F)(F)F)c4)n3)cnn2n1,GI50,IGROV1 ovarian,10.9 µM
same,TGI,IGROV1 ovarian,> 25 µM
same,GI50,MDA-MB-435,9.93 µM
same,TGI,MDA-MB-435,> 25 µM
same,GI50,NCI-H522 lung,6.33 µM
same,TGI,NCI-H522 lung,> 23.1 µM
same,GI50,OVCAR-3 ovarian,8.57 µM
same,TGI,OVCAR-3 ovarian,> 25 µM
same,GI50,OVCAR-5 ovarian,> 15.9 µM
same,TGI,OVCAR-5 ovarian,> 25 µM
same,GI50,SF-295 CNS,> 25 µM
same,TGI,SF-295 CNS,> 25 µM
same,GI50,SF-539 CNS,4.92 µM
same,TGI,SF-539 CNS,9.63 µM
same,GI50,SNB-19 CNS,13.6 µM
same,TGI,SNB-19 CNS,> 25 µM
same,GI50,T-47D breast,1.4 µM
same,TGI,T-47D breast,> 25 µM
O=C(Oc1ccccc1Cl)c1cccnc1Nc1ccnc(C(F)(F)F)c1,GI50,IGROV1 ovarian,10.7 µM
same,TGI,IGROV1 ovarian,30.4 µM
same,GI50,MDA-MB-435,4.53 µM
same,TGI,MDA-MB-435,18.3 µM
same,GI50,NCI-H522 lung,6.6 µM
same,TGI,NCI-H522 lung,23.3 µM
same,GI50,OVCAR-3 ovarian,16.5 µM
same,TGI,OVCAR-3 ovarian,32.6 µM
same,GI50,OVCAR-5 ovarian,39.6 µM
same,TGI,OVCAR-5 ovarian,> 100 µM
same,GI50,SF-295 CNS,21.3 µM
same,TGI,SF-295 CNS,52.5 µM
same,GI50,SF-539 CNS,13.4 µM
same,TGI,SF-539 CNS,39.8 µM
same,GI50,SNB-19 CNS,23.4 µM
same,TGI,SNB-19 CNS,70.1 µM
same,GI50,T-47D breast,29.4 µM
same,TGI,T-47D breast,> 100 µM
CCCC(=O)C(CC)/C(CCC(=O)N(Cc1ccccc1)Cc1ccccc1)=N/NC(=O)C[N+](C)(C)C (stereo not drawn),TGI,IGROV1 ovarian,> 100 µM
same,TGI,NCI-H522 lung,> 100 µM
same,TGI,OVCAR-3 ovarian,> 100 µM
same,TGI,OVCAR-5 ovarian,> 100 µM
same,TGI,SF-295 CNS,> 100 µM
same,TGI,SF-539 CNS,> 100 µM
same,TGI,SNB-19 CNS,> 100 µM
same,TGI,SR leukemia,> 100 µM
COc1ccc(/C=C2/CCOC2=O)cc1,GI50,IGROV1 ovarian,> 100 µM
same,TGI,IGROV1 ovarian,> 100 µM
same,GI50,OVCAR-3 ovarian,> 100 µM
same,TGI,OVCAR-3 ovarian,> 100 µM
same,GI50,OVCAR-5 ovarian,> 100 µM
same,TGI,OVCAR-5 ovarian,> 100 µM
same,GI50,SF-539 CNS,> 100 µM
same,TGI,SF-539 CNS,> 100 µM
same,GI50,SNB-19 CNS,> 100 µM
same,TGI,SNB-19 CNS,> 100 µM
same,GI50,SR leukemia,> 100 µM
same,TGI,SR leukemia,> 100 µM
same,GI50,T-47D breast,> 100 µM
same,TGI,T-47D breast,> 100 µM
C=CC1(C)/C(=N\O)C(C)(CC)C(=O)N1O (stereo not drawn),TGI,IGROV1 ovarian,> 100 µM
same,TGI,NCI-H522 lung,> 100 µM
same,TGI,OVCAR-3 ovarian,> 100 µM
same,TGI,OVCAR-5 ovarian,> 100 µM
same,TGI,SF-295 CNS,> 100 µM
same,TGI,SF-539 CNS,> 100 µM
same,TGI,SNB-19 CNS,> 100 µM
same,TGI,SR leukemia,> 100 µM
CC(C)c1cccc2sc(NC(=O)C(=O)CC(=O)c3ccc(F)cc3)nc12,TGI,IGROV1 ovarian,> 100 µM
same,TGI,NCI-H522 lung,> 100 µM
same,TGI,OVCAR-3 ovarian,> 100 µM
same,TGI,OVCAR-5 ovarian,> 100 µM
same,TGI,SF-295 CNS,> 100 µM
same,TGI,SF-539 CNS,> 100 µM
same,TGI,SNB-19 CNS,> 100 µM
C/C(=C\c1ccccc1)C(O)S(=O)(=O)O (stereo not drawn),TGI,IGROV1 ovarian,> 100 µM
same,TGI,NCI-H522 lung,> 100 µM
same,TGI,OVCAR-3 ovarian,> 100 µM
same,TGI,OVCAR-5 ovarian,> 100 µM
same,TGI,SF-295 CNS,> 100 µM
same,TGI,SNB-19 CNS,> 100 µM
same,TGI,SR leukemia,> 100 µM
COc1cccc(C(=O)O)c1Cc1cccc2ccccc12,TGI,IGROV1 ovarian,> 100 µM
same,TGI,NCI-H522 lung,> 100 µM
same,TGI,OVCAR-3 ovarian,> 100 µM
same,TGI,OVCAR-5 ovarian,> 100 µM
same,TGI,SF-295 CNS,> 100 µM
same,TGI,SNB-19 CNS,> 100 µM
same,TGI,SR leukemia,> 100 µM
COc1cc(C(C)c2cc3c(cc2OCCOCCOc2cc4c(cc2C(C)c2cc(OC)c(OC)c(OC)c2)OCO4)OCO3)cc(OC)c1OC (stereo not drawn),GI50,IGROV1 ovarian,> 100 µM
same,TGI,IGROV1 ovarian,> 100 µM
same,GI50,NCI-H522 lung,> 100 µM
same,TGI,NCI-H522 lung,> 100 µM
same,TGI,OVCAR-3 ovarian,> 10 µM
same,GI50,OVCAR-5 ovarian,> 100 µM
same,TGI,OVCAR-5 ovarian,> 100 µM
same,GI50,SF-295 CNS,> 10 µM
same,TGI,SF-295 CNS,> 100 µM
same,GI50,SF-539 CNS,> 100 µM
same,TGI,SF-539 CNS,> 100 µM
same,GI50,SNB-19 CNS,> 100 µM
same,TGI,SNB-19 CNS,> 100 µM
same,TGI,SR leukemia,> 10 µM
